Experimental data taken from patent US20090156577A1, “7-AMINO ALKYLIDENYL-HETEROCYCLIC QUINOLONES AND NAPHTHYRIDONES” (priority 2004, published 2009).
Values after ≈ are worked out from the molar mass of the structure shown. Where a name gives a salt, the structure may show the parent alone. Read-outs that look alike come from different tables or passages of the source.

Test system: pathogenic bacteria
Experiment: MIC by microdilution broth method (NCCLS M7-A4), in vitro antibacterial activity
Type: cell-based
How it was run: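 Broth microdilution per NCCLS M7-A4: two-fold serial dilutions in cation-adjusted Mueller-Hinton broth, inoculum about 5×10^4 CFU/well. Trays incubated 16–20 h at 35 °C. MIC read by comparing growth against no-compound growth controls.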

[1] = Staphylococcus aureus, Organism A: Staphylococcus aureus OC4172, read-out: MIC
[2] = Streptococcus pneumoniae, ATCC49619, Organism E: Streptococcus pneumoniae ATCC 49619, read-out: MIC
[3] = Streptococcus pneumoniae, Organism C: fluoroquinolone-resistant clinical isolate of Streptococcus pneumoniae (QRDR amino acid substitutions)
[4] = Streptococcus pneumoniae, Organism D: fluoroquinolone-resistant clinical isolate of Streptococcus pneumoniae (QRDR amino acid substitutions)
[5] = Staphylococcus aureus, Organism A: Staphylococcus aureus OC4172
[6] = Streptococcus pneumoniae, ATCC49619, Organism E: Streptococcus pneumoniae ATCC 49619
[7] = Streptococcus pneumoniae, Organism B: fluoroquinolone-resistant clinical isolate of Streptococcus pneumoniae (QRDR amino acid substitutions)

SMILES	MIC [1] [µg/mL]	MIC [2] [µg/mL]	MIC [3] [µg/mL]	MIC [4] [µg/mL]	MIC [5] [µg/mL]	MIC [6] [µg/mL]	MIC [7] [µg/mL]
N#CC(CN)=C1CCN(c2cc3c(cc2F)c(=O)c(C(=O)O)cn3C2CC2)CC1 [Compound 285, 7-[4-(2-Amino-1-cyano-ethylidene)-piperidin-1-yl]-1-cyclopropyl-6-fluoro-4-oxo-1,4-dihydro-quinoline-3-carboxylic Acid]	0.25 (≈ 0.631 µM)	1 (≈ 2.52 µM)	8 (≈ 20.2 µM)	> 16	–	–	–
NCC(C(=O)O)=C1CCN(c2nc3c(cc2F)c(=O)c(C(=O)O)cn3C2CC2)CC1 [Compound 286, 7-[4-(2-Amino-1-carboxy-ethylidene)-piperidin-1-yl]-1-cyclopropyl-6-fluoro-4-oxo-1,4-dihydro-[1,8]naphthyridine-3-carboxylic Acid]	4 (≈ 9.61 µM)	16 (≈ 38.4 µM)	> 16	> 16	–	–	–
NCCNCC(Cl)=C1CCN(c2nc3c(cc2F)c(=O)c(C(=O)O)cn3C2CC2)CC1.O=C(O)C(F)(F)F [Compound 289, 7-{4-[2-(2-Amino-ethylamino)-1-chloro-ethylidene]-piperidin-1-yl}-1-cyclopropyl-6-fluoro-4-oxo-1,4-dihydro-[1,8]naphthyridine-3-carboxylic Acid Trifluoroacetic Acid Salt]	0.5	0.25	1	2	–	–	–
O=CN1CCN(CC(Cl)=C2CCN(c3nc4c(cc3F)c(=O)c(C(=O)O)cn4C3CC3)CC2)CC1 [Compound 291, 7-{4-[1-Chloro-2-(4-formyl)-piperazin-1-yl-ethylidene]-piperidin-1-yl}-1-cyclopropyl-6-fluoro-4-oxo-1,4-dihydro-[1,8]naphthyridine-3-carboxylic Acid Trifluoroacetic Acid Salt]	2	8	> 16	8	–	–	–
O=C(O)c1cn(C2CC2)c2nc(N3CCC(=C(Cl)CN4CCNCC4)CC3)c(F)cc2c1=O [Compound 292, 7-[4-(1-chloro-2-piperazin-1-yl-ethylidene)-piperidin-1-yl]-1-cyclopropyl-6-fluoro-4-oxo-1,4-dihydro-[1,8]naphthyridine-3-carboxylic Acid Trifluoroacetic Acid Salt]	–	–	> 16	16	1	4	–
O=C(O)C(F)(F)F.O=C(O)c1cn(C2CC2)c2nc(N3CCC(=C(F)CN4CCNCC4)CC3)c(F)cc2c1=O [Compound 294, 1-Cyclopropyl-6-fluoro-7-[4-(1-fluoro-2-piperazin-1-yl-ethylidene)-piperidin-1-yl]-4-oxo-1,4-dihydro-[1,8]naphthyridine-3-carboxylic Acid Trifluoroacetic Acid Salt]	2	8	> 16	> 16	–	–	> 16
C[C@H]1COc2c(N3CCC(=C(F)CN(C)C)CC3)c(F)cc3c(=O)c(C(=O)O)cn1c23 [Compound 295, 9-[4-(2-Dimethylamino-1-fluoro-ethylidene)-piperidin-1-yl]-8-fluoro-(3S)-3-methyl-6-oxo-2,3-dihydro-6H-1-oxa-3a-aza-phenalene-5-carboxylic Acid]	0.5 (≈ 1.15 µM)	2 (≈ 4.61 µM)	16 (≈ 36.9 µM)	8 (≈ 18.5 µM)	–	–	16 (≈ 36.9 µM)
C/C(CN)=C1\CCCN(c2nc3c(cc2F)c(=O)c(C(=O)O)cn3C2CC2)C1.O=C(O)C(F)(F)F [Compound 297, (Z)-7-[3-(1-Amino-2-propylidene)-piperidin-1-yl]-1-cyclopropyl-6-fluoro-4-oxo-1,4-dihydro-[1,8]naphthyridine-3-carboxylic Acid Trifluoroacetic Acid Salt]	0.25	1	16	16	–	–	16
CN(C)CC(Cl)=C1CCN(c2cc3c(cc2F)c(=O)c(C(=O)O)cn3C2CC2)CC1 [Compound 298, 7-[4-(1-Chloro-2-dimethylamino-ethylidene)-piperidin-1-yl]-1-cyclopropyl-6-fluoro-4-oxo-1,4-dihydro-quinoline-3-carboxylic Acid Trifluoroacetic Acid Salt]	–	–	16	8	0.25	1	16
